Test results as given in US20250154607A1, “ISOTHERMAL AMPLIFICATION OF PATHOGENS” (priority 2021, published 2025).
≈ marks a conversion by molar mass, not a printed value.

Assays:
RNase A [1] = target: T1, RNase A (Bos taurus, UniProt P61823); test: RNase Alert assay of RNase A activity recovery after SDS/DTT pretreatment; assay type: biochemical
T1 sequence (P61823 27-150): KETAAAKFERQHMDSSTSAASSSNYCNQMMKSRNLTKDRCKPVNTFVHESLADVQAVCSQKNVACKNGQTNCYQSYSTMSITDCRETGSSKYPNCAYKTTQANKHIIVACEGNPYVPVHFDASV
Procedure: 2 ng RNase A was incubated 2 minutes at 58° C. in […] solutions containing either 10 mM DTT+0.2% SDS (+), 0.2% SDS (triangle), 10 mM DTT (square), or neither (solid line) and then the RNase Alert assay was used to study the recovery of any RNase activity upon sequestration of SDS after dissolving lyophilized APA reagents without enzymes but containing RNase Alert substrate and protective agent (4% βCD) with continued incubation and fluorescence data collection at 58° C. In the presence of RNase activity, the RNase alert indicator substrate releases detectable fluorescence. […] FIG. 11A depicts recovery of RNase A activity after identical pretreatment without addition of βCD, in this case monitoring activity in […] of the solution by transfer to an RNase alert “wet” reaction format. […] Thus, as shown here, simultaneous treatment with ionic detergent and reducing agent is required for successful irreversible inactivation under the conditions described herein. […] Without being bound by any particular theory, this may be related to the impact of cyclodextrin and other APA additives on the refolding process. This example also provides further confirmation that the prior art and currently available methods (e.g, employing a reducing agent but no denaturant) are inadequate under these conditions, with an independent, commercially available RNase assay.

nasal swab ribonucleases = test: Protection of RNA from nasal swab ribonucleases (influenza B RNA APA); assay type: biochemical, human; settings: nasal swab eluate 4% of swab; 0.2% SDS with or without 10 mM DTT; 2 minutes at 58° C.; then 4% βCD
RNase A [2] = target: T1, RNase A; test: Influenza B virus APA assay with RNase A in ELB (Elution/Lysis Buffer); assay type: biochemical; settings: RNAse A 10 μg/ml; 2 minutes 58° C. in ELB with 0.2% SDS, without or with 10 mM DTT; β-CD 4% final
Procedure: FIGS. 12A-12B depict data related to RNase A inactivation in an influenza B assay like the one in Example 4, with DTT in ELB (Elution/Lysis Buffer). […] After incubation, lyophilized APA reagents co-incubated 2 minutes 58° C., containing β-CD (4% final) were dissolved with the heated solutions, and FAM fluorescence collected every 15 seconds to monitor APA. […] The inclusion of DTT enables unimpeded operation of this POC influenza detection system in a mock sample containing very high level of purified RNase A ([…]). Moreover, while currently available methods can only achieve irreversible ribonuclease inactivation at a maximum 200 ng/ml, the compositions and methods provided herein show utility with 10 μg/ml to accommodate potentially larger amounts in patient samples.

RNase A [3] = target: T1, RNase A; test: RNaseAlert assay of RNase A inactivation with CTAB and DTT after sequestration by HP-βCD; assay type: biochemical; settings: for RNase A inactivation, activity upon sequestration of the detergent: 68° C.; for RNase A activity after CTAB sequestration by 4% HP-βCD: 20 ng RNase A, various temperatures
Procedure: FIG. 7 depicts data related to the effect of DTT on the irreversibility of RNase A inactivation in the presence of CTAB at various temperatures. To simulate authentic reaction conditions, standard APA reaction reagents lacking 9° Nm™ DNA polymerase but containing 4% HP-βCD were prepared in a lyophilized format. The lyophilized reagents also contained the RNaseAlert® assay substrate, a synthetic quenched RNA probe which releases fluorescence in the presence of active RNase A. Reagents were preincubated 2 minutes and dissolved at the indicated temperatures with […] solutions containing 20 ng RNase A ([…]) with (dotted lines) or without (shapes) 10 mM DTT which had also been preincubated at the indicated temperatures on a Bio-Rad CFx thermocycler with programmed temperature gradient.
FIG. 8 depicts data related to effect of DTT and HP-βCD on RNase A inactivation. An RNase Alert assay was used to study the effect of DTT and 0.2% cationic detergent CTAB on RNase inactivation. RNase A was spiked into solutions containing 0.2% CTAB which were then mixed with lyophilized APA reagent pellets lacking enzymes but containing RNase Alert substrate and protective agent (4% HP-0 CD) after preincubation of all solutions at 68° C. followed by fluorescence data collection at 68° C.

9° Nm™ DNA polymerase [4] = target: T2, 9° Nm™ DNA polymerase (Thermococcus sp., UniProt Q56366, E143D); test: APA amplification of Chlamydia trachomatis DNA with CTAB, with or without HP-βCD; assay type: biochemical
Procedure: APA reactions containing CAdNTP and sequence-specific molecular beacon detection probes were performed as above in lyophilized (with HP-βCD; FIG. 3B) or wet reactions (no HP-βCD; FIG. 3A) and various amounts of the cationic detergent CTAB, without (“NTC”) or with the addition of 500 copies of C. trachomatis total cell DNA. Activation of CAdNTP by heating 2 minutes at 90° C. was followed by APA at 68° C. with fluorescence collected every 15 seconds.

9° Nm™ DNA polymerase [5] = target: T2, 9° Nm™ DNA polymerase; test: Order-of-addition assay (APA of S. enterica DNA, SDS and hydroxypropyl β-CD); assay type: biochemical; settings: 4% hydroxypropyl β-CD added prior to 0.4% SDS
Procedure: Order-of-addition assay: Detection time dependent on cyclodextrin addition prior to brief interaction of enzymes with SDS. Since SDS rapidly and irreversibly inactivated 9° Nm™ DNA polymerase, when the enzyme is instead simultaneously exposed to SDS and β-CD, the kinetics of complexation of the latter two substances must be very rapid, compared with the rate of interaction between SDS and the enzyme.
FIG. 6 depicts data related to detection of S. enterica DNA target (50,000 copies) by APA reactions in a wet “hot-start” format mediated by CleanAmp™ deoxynucleotides (CAdNTP) containing Tris pH7.6, KCl, (NH4)2SO4, MgSO4, Triton X-100, SYBRI, CAdNTP, 9° Nm™ DNA polymerase, with additions of 0.4% SDS (X), 4% hydroxypropyl β-CD (squares), SDS then immediately β-CD (circles), or β-CD then SDS (solid line) with mixing. Control (ctrl dotted line) was no additions. All samples included DNA target. Isothermal APA was at 68° C., collecting intercalating dye fluorescence every 15 seconds to monitor all exponential DNA amplification. […] Negative controls for each condition without S. enterica DNA confirmed specificity of indicated amplification products (not shown).

[6] = test system: Chlamydia trachomatis elementary bodies; test: Lysis of Chlamydia trachomatis elementary bodies, read out by APA; settings: APA reaction mix containing 4% cyclodextrin HP-βCD
Procedure: Elementary body lysis (˜40/reaction) was probed in this example using an APA-based assay. Elementary bodies (Acrometrix) were added to either cold chlamydia transport media (SPD containing sucrose, phosphate buffer, and glutamic acid), TE (Tris-EDTA 10-1), or lysis buffer containing 0.4% SDS, pH 2.2. The samples in TE or SDS were heated 5 minutes at 95° C. (heat lysis) or 2 minutes at 78° C. (SDS lysis), respectively. Then 5 μl (containing 40 elementary bodies) was added to “wet” APA reaction mix as above (pH 7.6 to facilitate isothermal CAdNTP activation) containing 4% cyclodextrin HP-βCD for isothermal APA (68° C.) with fluorescence from a chlamydia-specific molecular beacon collected every 15 seconds.

9° Nm™ DNA polymerase [7] = target: T2, 9° Nm™ DNA polymerase; test: APA amplification of Neisseria gonorrhea DNA with SDS, with or without HPβCD; assay type: biochemical; settings: 4% HPβCD, lyophilized reagents, 500 copies N. gonorrhea genomic DNA
Procedure: This example provides SDS complexation analyses of the methods and compositions provided herein. […] Anionic detergent SDS at >0.01% is inhibitory to APA amplification of DNA, but the presence of the protective agent hydroxypropyl β-CD (βCD) allowed amplification to proceed despite≤0.2% SDS. The kinetics of hydroxypropyl β-CD sequestration of SDS were thus sufficiently rapid at a molar ratio of 2:1 (˜14 mM: −7 mM) to prevent 9° Nm™ DNA polymerase inactivation by SDS.
Standard APA reactions with or without 4% Sigma 389145 HPβCD containing “hot-start” CleanAmp™ deoxynucleotides (CAdNTP) and a sequence-specific molecular beacon detection probe were performed with lyophilized ((supplemented with dextran 40, Trehalose), FIG. 2B) or “wet” (no HPβCD, FIG. 2A) reagents including Tris pH 8.4, KCl, MgSO4, and (NH4)2SO4 Triton X-100, 9° Nm™ DNA polymerase, CAdNTP, primers and probe. For the lyophilized reactions, samples were prepared in 50 μl solution containing MgSO4, and (NH4)2SO4 with (shapes) or without (dashed) 500 copies of N. gonorrhea genomic DNA. After dried reagents were dissolved with the samples, various amounts of SDS were added, as indicated, and solutions were vortexed. For the wet reactions, 45 μl master mix containing all reaction components was added to 5 μl sample containing 1OX SDS (final concentration as indicated), with and without 500 copies of N. gonorrhea genomic DNA. Activation of CAdNTP by 2 minutes 90° C. was followed by APA at 68° C. for 10 minutes with detection of the NG amplification product by fluorescence collected every 15 seconds.

influenza B RNA = test: Reverse-transcription APA detection of influenza B RNA with SDS and lyophilized reagents containing cyclodextrin; assay type: biochemical; settings: 0.2% SDS lysis solution, 500 IU influenza B RNA, 4% betaCD in lyophilized reagents
Procedure: APA was performed with lyophilized reagents (including β-cyclodextrin, dNTPs, 35 units reverse transcriptase, KCl, EGTA (or EDTA), Tx-100, Tween 80, poly rA, Tris pH8.4, dextran 40k, 4% betaCD, trehalose, primers, probe, 9° Nml™)
After two minutes at 58° C. (to facilitate reverse transcription) the temperature was raised to 68° C. for APA and fluorescence detection.

RNase A [8] = target: T1, RNase A; test: Requirements for irreversible RNase inactivation (influenza B RNA APA in presence of RNase A); assay type: biochemical; settings: 500 ng RNase A (10 μg/ml); additions 0.2% SDS, 10 mM DTT, 0.1% Triton X-100 as labelled; 2 minutes at 58° C.; then 4% βCD
[9] = cited from earlier work

T2 sequence (Q56366 whole entry E143D): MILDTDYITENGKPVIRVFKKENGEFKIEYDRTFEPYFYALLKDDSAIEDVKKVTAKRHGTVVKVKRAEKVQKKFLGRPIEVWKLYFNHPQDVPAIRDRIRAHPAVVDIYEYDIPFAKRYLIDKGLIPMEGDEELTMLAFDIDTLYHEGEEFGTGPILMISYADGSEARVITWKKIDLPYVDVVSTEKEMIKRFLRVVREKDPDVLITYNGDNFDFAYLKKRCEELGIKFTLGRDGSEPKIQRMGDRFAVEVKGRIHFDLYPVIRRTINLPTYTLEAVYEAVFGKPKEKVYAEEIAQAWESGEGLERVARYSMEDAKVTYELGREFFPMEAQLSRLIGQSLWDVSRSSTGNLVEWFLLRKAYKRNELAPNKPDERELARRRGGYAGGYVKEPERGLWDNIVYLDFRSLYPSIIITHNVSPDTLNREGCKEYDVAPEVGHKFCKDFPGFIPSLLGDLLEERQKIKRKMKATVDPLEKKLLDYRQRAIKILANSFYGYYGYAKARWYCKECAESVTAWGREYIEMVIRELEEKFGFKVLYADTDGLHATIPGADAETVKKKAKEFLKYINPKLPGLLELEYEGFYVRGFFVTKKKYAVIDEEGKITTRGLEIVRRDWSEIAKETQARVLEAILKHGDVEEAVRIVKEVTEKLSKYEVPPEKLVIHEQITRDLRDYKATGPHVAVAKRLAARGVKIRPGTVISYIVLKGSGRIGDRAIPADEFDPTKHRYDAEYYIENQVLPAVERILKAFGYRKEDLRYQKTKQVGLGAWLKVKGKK

## O[C@H](CS)[C@H](O)CS (racemic) [DTT, dithiothreitol]
RNase A [1]; 2 ng RNase A, 2 minutes at 58° C., 10 mM DTT and/or 0.2% SDS, then 4% βCD
  Recovery of RNase A activity after pretreatment, with βCD: virtually full recovery of enzyme activity
RNase A [1]; 10 mM DTT alone, wet RNase alert format
  Recovery of RNase A activity after pretreatment, without addition of βCD: did not impact recovery of RNase A activity
Nasal swab ribonucleases
  Influenza B RNA detection after nasal swab eluate pretreatment and SDS sequestration: restored detection
RNase A [2]
  Influenza B virus APA performance in presence of RNAse A: performance equivalent to a no RNAse A control
RNase A [3]; 0.2% CTAB with 10 mM DTT, 4% HP-βCD
  RNase A inactivation, activity upon sequestration of the detergent: effectively irreversibly inactivated
RNase A [3]; with 10 mM DTT
  RNase A activity after CTAB sequestration by 4% HP-βCD: no restored activity was detected

## hydroxypropyl-β-cyclodextrin [HP-βCD]
9° Nm™ DNA polymerase [4]; with HP-βCD, lyophilized reactions
  CTAB concentration completely tolerated by APA in presence of the protectant: at least 0.2%
9° Nm™ DNA polymerase [5]
  Effect on APA amplification: restoring detection time, although with reduced plateau
[6]
  Impact of persisting 0.4% ionic detergent on 9° Nm™ DNA polymerase-mediated amplification: had no impact
9° Nm™ DNA polymerase [7]
  SDS concentration tolerated by APA amplification in presence of the protective agent: at least 0.2%
9° Nm™ DNA polymerase [7]; listed as hydroxypropyl β-CD
  SDS concentration tolerated by APA amplification in presence of the protective agent: ≤ 0.2%
Influenza B RNA
  Restoration of assay performance in the presence of SDS: virtually complete restoration of assay performance

## Triton X-100
RNase A [8]
  Influenza B RNA detection by APA after RNase A pretreatment: no RNA detection

## CCCCCCCCCCCCCCCC[N+](C)(C)C.[Br-] [CTAB, cetyltrimethylammonium bromide]
9° Nm™ DNA polymerase [4]; absence of HP-βCD, 500 copies C. trachomatis total cell DNA
  CTAB concentration giving complete inactivation of APA: > 0.01%
RNase A [3]; 0.2% CTAB only, RNase A 10 μg/ml and 1 μg/ml
  RNase A inactivation, activity upon sequestration of the detergent: activity was rapidly restored
RNase A [3]; without DTT
  RNase A activity after CTAB sequestration by 4% HP-βCD: immediate reversibility

## OC[C@H]1O[C@@H]2O[C@H]3[C@H](O)[C@@H](O)[C@@H](O[C@H]4[C@H](O)[C@@H](O)[C@@H](O[C@H]5[C@H](O)[C@@H](O)[C@@H](O[C@H]6[C@H](O)[C@@H](O)[C@@H](O[C@H]7[C@H](O)[C@@H](O)[C@@H](O[C@H]1[C@H](O)[C@H]2O)O[C@@H]7CO)O[C@@H]6CO)O[C@@H]5CO)O[C@@H]4CO)O[C@@H]3CO [α-Cyclodextrin]
[9]
  water solubility: 50 mg/mL (≈ 51.4 mM)
